In one series the test system is HDL. The series is described as follows: In vitro incubation of human serum with Zn-Pc incorporated into DPPC liposomes. In kind it is in vitro ADME. As to conditions: Reddi et al., unpublished results.
Series [1] can be described thus: Elimination pathway: analysis of faeces and urine of rats in metabolic cages. The class given is in vivo, Wistar albino rats. As to conditions: rapid clearance phase.
The subject of another series is serum lipoproteins. The series is described as follows: Sephacryl S-300 chromatography of mouse serum after Zn-Pc administration. The class given is in vivo, BALB/c mice. As to conditions: sera taken between 1 h and 1 week after i.p. administration; second protein peak on Sephacryl S-300. The source says: (§1) Br. J. Cancer (1987), 56, 597~~~~~~ ~~-60?TeMcilnPssLd,18 Pharmacokinetic studies with zinc(II)-phthalocyanine in tumour-bearing mice E. Reddi, G. Lo Castro, R. Biolo & G. Jori Department of Biology via Loredan 10, University of Padova, 1-35131 Padova, Italy. Summary Zn(II)-phthalocyanine (Zn-Pc) incorporated into unilamellar liposomes of dipalmitoyl- phosphatidylcholine has been injected intraperitoneally (0.5mgkg-1) to BALB/c mice bearing a transplanted MS-2 fibrosarcoma. […] Several normal tissues take up the drug within 3 hours after administration but release it almost completely after 24-48 hours. […] The results are discussed in terms of a possible use of Zn-Pc as a photosensitizer in the photodynamic therapy of tumours. Haematoporphyrin and haematoporphyrin derivative (HpD) are presently used as sensitizers for the specific destruction of tumours by photodynamic therapy (PDT) (Moan, 1986; Spikes & Jori, 1987). […] Pharmacokinetic studies The Zn-Pc was injected- i.p. into tumour-bearing mice after incorporation of the dye into small unilamellar liposomes of DPPC following the procedure described by Valduga et al. (1987): The Zn-Pc/DPPC ratio was 1:36 on a molar basis, as assessed from the weighed amount of phospholipid and absorbance measurements at 680 nm for Zn-Pc (E= 1.68 x 105 M-1 cm- at 673 nm). […]

The nature of series [2]: Recovery of Zn-Pc from tumour and normal tissues of tumour-bearing mice. In kind it is in vivo, BALB/c mice. The source says: Br. J. Cancer (1987), 56, 597~~~~~~ ~~-60?TeMcilnPssLd,18 Pharmacokinetic studies with zinc(II)-phthalocyanine in tumour-bearing mice E. Reddi, G. Lo Castro, R. Biolo & G. Jori Department of Biology via Loredan 10, University of Padova, 1-35131 Padova, Italy. Summary Zn(II)-phthalocyanine (Zn-Pc) incorporated into unilamellar liposomes of dipalmitoyl- phosphatidylcholine has been injected intraperitoneally (0.5mgkg-1) to BALB/c mice bearing a transplanted MS-2 fibrosarcoma. […] Several normal tissues take up the drug within 3 hours after administration but release it almost completely after 24-48 hours. […] The results are discussed in terms of a possible use of Zn-Pc as a photosensitizer in the photodynamic therapy of tumours. Haematoporphyrin and haematoporphyrin derivative (HpD) are presently used as sensitizers for the specific destruction of tumours by photodynamic therapy (PDT) (Moan, 1986; Spikes & Jori, 1987). Although the technique is being applied for the treatment of a variety of neoplasias at both the experimental and clinical level (Dougherty, 1984), PDT is facing some problems and/or limitations. Thus, HpD as it is prepared from Hp (Lipson et al., 1961) is a complex mixture of porphyrins, whose composition is often not reproduced in different preparations and may change as a function of various experimental parameters (Bonnett et al., 1981; Dougherty, 1983). […] Moreover, PDT is usually performed by irradiation with 620-630 nm light; unfortunately, the molar absorptivity of Hp or HpD in this wavelength range is very low (< 103 M- 1 cm- 1). […] The ability of phthalocyanines and some of their metal derivatives to act as efficient photosensitizers of simple biological substrates (Spikes & Bommer, 1986) and cultured cells (Ben-Hur & Rosenthal, 1985; Chan et al., 1986) has been documented. Finally, Rousseau et al. (1985) have reported that tetra- sulphophthalocyanines (TSPc) can accumulate in a mammary adenocarcinoma in rats. While tetrasulphophthalocyanines are suitable for in vivo studies because of their high water-solubility, serious problems may arise owing to the low degree of purity. Actually, the presently adopted procedures for sulfonation of phthalocyanines lead to mixtures of mono-, di-, tri- and tetra-sulphonated compounds (Linstead & Weiss, 1950; Moser & Thomas, 1983). In general, underivatized phthalocyanines can be obtained with a very high purity and display a good efficiency in the generation of activated oxygen species (Maillard et al., 1980; Wu et al., 1985). […] In this paper, we describe the pharmacokinetic behaviour of liposome-bound Zn- phthalocyanine injected into. BALB/c mice bearing a transplanted fibrosarcoma. Materials and methods Chemicals Zn2 +-phthalocyanine (Zn-Pc) was supplied by Ciba-Geigy (Switzerland) and used without further purification. […] Dipalmitoyl- phosphatidylcholine (DPPC), over 98% pure, was a product of Sigma Chemical Co.; sodium dodecylsulphate (SDS) and Sephacryl S-300 were purchased from Merck and Pharmacia, respectively. […] Pharmacokinetic studies The Zn-Pc was injected- i.p. into tumour-bearing mice after incorporation of the dye into small unilamellar liposomes of DPPC following the procedure described by Valduga et al. (1987): The Zn-Pc/DPPC ratio was 1:36 on a molar basis, as assessed from the weighed amount of phospholipid and absorbance measurements at 680 nm for Zn-Pc (E= 1.68 x 105 M-1 cm- at 673 nm). […]

A short description of series [3]: Serum concentration time course after i.p. injection of liposomal Zn-Pc in tumour-bearing mice. The class given is in vivo, BALB/c mice. As to conditions: 0.5 mg kg-1 i.p. in DPPC liposomes, mice bearing MS-2 fibrosarcoma.
Description: as §1, with “1987). Although the technique is being applied for the treatment of a variety of neoplasias at both the experimental and clinical level (Dougherty, 1984), PDT is facing some problems and/or limitations. Thus, HpD as it is prepared from Hp (Lipson et al., 1961) is a complex mixture of porphyrins, whose composition is often not reproduced in different preparations and may change as a function of various experimental parameters (Bonnett et al., 1981; Dougherty, 1983). […] Moreover, PDT is usually performed by irradiation with 620-630 nm light; unfortunately, the molar absorptivity of Hp or HpD in this wavelength range is very low (< 103 M- 1 cm- 1).” for “1987).”

On the set-up of series [4]: method as in Tomio et al. (1982). The conditions noted are these: Wistar rats; ref Tomio et al. (1982); cited from earlier work.
On the set-up of series [5]: method as in Tralau et al., 1987. The conditions noted are these: i.v., ref Tralau et al., 1987, cited from earlier work.

“Also recorded” adds a separate entry of the source.

Data on 3 compounds can be found in paper PMC2001878, “Pharmacokinetic studies with zinc(II)-phthalocyanine in tumour-bearing mice” (British Journal of Cancer, 1987).

Consider `[Zn+2].c1ccc2c(c1)-c1nc-2nc2[n-]c(nc3nc([n-]c4nc(n1)-c1ccccc1-4)-c1ccccc1-3)c1ccccc21` [Zn-Pc, Zn(II)-phthalocyanine], for which, in the series with HDL, the “fraction of drug bound by HDL” value is on record as “at least 70%”. The “elimination pathway from serum” value in series [1] is “almost exclusively via the bile-gut pathway”. The “serum protein class transporting the drug” value with serum lipoproteins is reported as “specifically transported by serum lipoproteins; also recorded: specifically associated with the second protein peak”. In addition, the “time of almost complete release from normal tissues” value in series [2] (0.5 mg kg-1 i.p.) fell in the range of 24 to 48 h. Besides, the “time of maximum tumour concentration” value in series [2] (MS-2 fibrosarcoma, 0.5 mg kg-1 i.p. in DPPC liposomes) lay within 18 to 24 h. The “ratio between Zn-Pc levels in tumour and muscle” value in series [2] (at 18-24 h (24 h) after 0.5 mg kg-1 i.p., muscle = surrounding normal tissue) was “approximately 7.5”. Moreover, the “time of uptake by several normal tissues after administration” value in series [2] (liver, kidneys, spleen, lungs, muscle, 0.5 mg kg-1 i.p.) is ≤ 3 h. Besides, the “skin concentration of Zn-Pc” value in series [2] (mouse skin, between 1 h and 168 h after administration, 0.5 mg kg-1 i.p.) is ≤ 0.1 pug g- I tissue. Besides, in series [3], the “serum half-life (fast phase)” value is on record as “approximately 9 hours” and the “time of maximum serum concentration after administration” value was found to be 3 h. In addition, the “fraction of Zn-Pc eliminated from serum in the fast phase” value in series [3] (biphasic clearance) was “approximately 60%”.

For the compound `CC1=C(CCC(=O)O)c2cc3[nH]c(cc4nc(cc5[nH]c(cc1n2)c(C)c5C(C)O)C(C)=C4C(C)O)c(C)c3CCC(=O)O` (centres unmarked) [haematoporphyrin], the “fraction of totally eliminated drug recovered in the faeces” value in series [4] was “at least 98%”.

For tetrasulphophthalocyanines [TSPc], the “time of accumulation in tumour” value in series [5] (fibrosarcoma implanted s.c. in the flank) was 1 to 3 h. Also, the “time to complete disappearance from serum” value in series [5] is reported as ≤ 3 h.
